{"source": "paper PMC4598023", "about": "(PLoS ONE, 2015)", "key": {"[1]": {"test": "Amylin aggregation by ThT fluorescence, up to 7 days in PBS pH 7.4", "type": "physicochemical", "conditions": "PBS pH 7.4, 25°C, followed up to 7 days", "procedure": "In this case, at the indicated time 160 μL sample were mixed with 40 μL ThT 100 μM. In both cases the thioflavin T fluorescence was measured by setting excitation at 450 nm and emission at 482 nm. […] The aggregation curves were fitted using a 4 parameter logistic function and the t1/2, elongation rate and lag time were estimated as described elsewhere.\n(§1) Scale bar = 200 nm. The raw data can be found in S2 File."}, "[2]": {"test": "Morphologic analysis of aggregation products by transmission electron microscopy (TEM)", "type": "physicochemical", "conditions": "negative stain 2% uranyl acetate; products of the aggregation kinetics", "from_the_text": "Samples from aggregation kinetic assay were applied to 300 mesh, Formvar-carbon-coated Cu grids (Electron Microscopy Science, USA), followed by negative stain with 2% uranyl acetate, pH 4.8, for 30–60 s.\nas §1"}, "[3]": {"system": "MCF–7 cells", "test": "cAMP production in MCF–7 cells following stimulation with amylin and PEGylated amylin", "type": "cell-based, human", "conditions": "for cAMP: 37°C", "procedure": "The assay was conducted by the CRO Eurofins | Cerep Panlabs, using the cAMP HiRange assay kit (Cisbio, 62AM6PE). According to the company, the assay was performed in 96 well half area plates, in a total reaction volume of 20 μl/well, with a total of 3.000 cells in suspension (after optimization for optimal seeding density and format: adherent or suspension), freshly thawed. Cells were incubated at 37°C in a humidified atmosphere with 5% (v/v) CO2. […] Following the incubation, cells were lysed and the cAMP quantified by using the cAMP HiRange assay kit (Cisbio, 62AM6PE) according to the manufacturer instructions. […] After 60 minutes incubation at room temperature, fluorescence was measured (excitation at 337 nm, emission at 620 vs. 665 nm), and the cAMP concentration was determined by dividing the signal at 665 nm by that at 620 nm and comparing with the cAMP calibration curve. Buffer was used as negative control and the results were corrected accordingly. Results are expressed as mean ± standard error (n = 2) of the resulting cAMP concentrations in nM. EC50 values for the agonist-induced cAMP production was calculated by adjusting data with a logist 4 parameter function (with SigmaPlot, Jandel Sci).\nMCF–7 cells endogenously express human amylin receptor CTR1 and CTR2 [72, 73]. Stimulation of the receptor with amylin results in the production of cAMP (Fig 5)."}}, "note": "Bridges are numbered along the chain shown (N, C = ends). Where no end group is shown, it is not given here.", "data": [{"substance": "PEGylated human amylin: human amylin monoconjugated at the N-terminal Lys1 region with 5 kDa methoxyl polyethylene glycol succinimidyl carbonate (mPEGsc5k) (KCNTATCATQRLANFLVHSSNNFGAILSSTNVGSNTY-NH2; disulfide 2-7; also: one mPEG 5 kDa (mPEGsc5k) on a Lys1 amino group)", "values": [{"measurement": "changes in ThT fluorescence up to 7 days", "setting": "[1]", "value": "only minor changes in ThT fluorescence"}, {"measurement": "fibrils by TEM after aggregation assay", "setting": "[2]", "value": "no fibrils were observed"}, {"measurement": "cAMP", "setting": "[3]; 1.00E-05 Molar, replicate 1, 30 min", "value": 53.95, "unit": "nM"}, {"measurement": "cAMP", "setting": "[3]; 1.00E-05 Molar, replicate 2, 30 min", "value": 47.73, "unit": "nM"}, {"measurement": "cAMP", "setting": "[3]; 1.00E-06 Molar, replicate 1, 30 min", "value": 47.85, "unit": "nM"}, {"measurement": "cAMP", "setting": "[3]; 1.00E-06 Molar, replicate 2, 30 min", "value": 54.26, "unit": "nM"}, {"measurement": "cAMP", "setting": "[3]; 1.00E-07 Molar, replicate 1, 30 min", "value": 38.3, "unit": "nM"}, {"measurement": "cAMP", "setting": "[3]; 1.00E-07 Molar, replicate 2, 30 min", "value": 36.06, "unit": "nM"}, {"measurement": "cAMP", "setting": "[3]; 1.00E-08 Molar, replicate 1, 30 min", "value": 17.13, "unit": "nM"}, {"measurement": "cAMP", "setting": "[3]; 1.00E-08 Molar, replicate 2, 30 min", "value": 22.08, "unit": "nM"}, {"measurement": "cAMP", "setting": "[3]; 1.00E-09 Molar, replicate 1, 30 min", "value": 5.54, "unit": "nM"}, {"measurement": "cAMP", "setting": "[3]; 1.00E-09 Molar, replicate 2, 30 min", "value": 6.29, "unit": "nM"}, {"measurement": "cAMP", "setting": "[3]; 1.00E-10 Molar, replicate 1, 30 min", "value": 3.86, "unit": "nM"}, {"measurement": "cAMP", "setting": "[3]; 1.00E-10 Molar, replicate 2, 30 min", "value": 4.59, "unit": "nM"}, {"measurement": "cAMP", "setting": "[3]; 1.00E-11 Molar, replicate 1, 30 min", "value": 4.14, "unit": "nM"}, {"measurement": "cAMP", "setting": "[3]; 1.00E-11 Molar, replicate 2, 30 min", "value": 3.71, "unit": "nM"}, {"measurement": "cAMP", "setting": "[3]; 1.00E-12 Molar, replicate 1, 30 min", "value": 4.83, "unit": "nM"}, {"measurement": "cAMP", "setting": "[3]; 1.00E-12 Molar, replicate 2, 30 min", "value": 5.61, "unit": "nM"}, {"measurement": "EC50", "setting": "[3]; 30 min 37°C, HBSS/HEPES pH 7.4, 500 μM IBMX, cAMP HiRange kit, 4 parameter logistic fit, n = 2, done by CRO", "value": "30.8 ± 6.7", "unit": "nM"}]}]}
